According to patent publication US20110003753A1, “COMPOSITIONS AND METHODS FOR DISRUPTING THE FUNCTION OF THE TRANSCRIPTIONAL REPRESSOR COMPONENT Sin3A-PAH2 DOMAIN TO INDUCE DIFFERENTIATION AND GROWTH INHIBITION IN BREAST CANCER” (SAMUEL WAXMAN CANCER RESEARCH FOUNDATION, priority 2009, published 2011):

Assays:
[1] = test system: MDA-MB-231 cells transfected with SID; assay: Proliferation assay (MTT) for ERα and RAR activation; assay type: cell-based, human; settings: SID-transfected MDA-MB-231; for growth inhibition (MTT): daily for 48 hrs
Excerpt: FIG. 5: A. Schematic representations of the promoters and 5′ untranslated regions (5′UTR) of CDH1 and ESR1 used in this study. Positions of CpG dinucleotides are indicated by grey ticks and the transcription initiation sites are represented by black arrows. The relative positions of primer pairs used to PCR amplify immunoprecipitated DNA from ChIP analysis and bisulfite-modified DNA are also indicated. B. H3K4me3 levels on the CDH1 and ESR1 promoter regions increase dramatically in response to SID. ChIP analysis was performed with chromatin from wild type or stably transfected MDA-MB-231 cells as indicated. Cross-linked protein-DNA complexes were immunoprecipitated with an anti-trimethyl H3K4 antibody and amplified by real-time PCR. Results are shown as percentage of input DNA. The RPL30 housekeeping gene is shown as a control. C. Real-time PCR analysis of CDH1 and ESR1 gene expression. Values are shown as molecules per μg total RNA and were derived from the ΔCt between the GAPDH housekeeping gene and the gene of interest. The amount of GAPDH molecules per μg total RNA was determined by absolute quantification. D. The CDH1 and ESR1 promoters undergo demethylation in response to SID. Following bisulfite modification of wild type or stably transfected MDA-MB-231 cells as indicated, specifically amplified PCR products were sequenced using primers corresponding to the promoter/5′UTR of ESR1. Positions of CpG dinucleotides are indicated by grey ticks and the transcription initiation sites are indicated by black arrows. […] Unmethylated CpGs are by represented open circles. CpG positions are shown relative to transcription initiation site. E. Functional assays for ERα and RAR activation. […]
For activation of RARs […] ATRA (all-trans-retinoic acid, pan-RAR agonist) or 100 nM Am580 (retinoibeozoic acid, RARα-specific agonist) was used daily for 48 hours. Cell proliferation was determined by MTT (Thiazolyl Blue Tetrazolium Bromide) colorimetric assay following standard protocols (Invitrogen). The optical density (OD) of reduced MTT was assessed at 570 nm versus 620/630 nm after 4 hr at 37° C. […]

[2] = target: GAL4 DBD-Sin3B (fusion of Sin3B with GAL4 DNA binding domain) (UniProt P04386); assay: cell-based or functional assay
Sin3B and MAD = assay: Mammalian two-hybrid assay, GAL4 DBD-Sin3B and VP16AD-MAD in 293T cells; assay type: cell-based; settings: 15 μM peptide applied to the cell culture medium
Excerpt: FIG. 2: SID decoy peptide blocks interactions between Sin3 PAH2 and MAD and interferes with recruitment of members of the Sin3 co-repressor complex. A. GST pull-down of MAD by the Sin3A PAH2 domain is blocked by SID peptide. Sin3A PAH2 domain (amino acids 306-450) was expressed in E. coli as a GST fusion and used in a pull down assay for in vitro interaction with 35S-methionine labeled MAD (left panel) or MAD immunoprecipitated from MDA-MB-231 cell lysates (right panel). 25% of input is shown for in vitro translated MAD and 10% of input for immunoprecipitated MAD (input). Assays were performed using 15 μM Tat-SID or Tat-SID^SCR peptide unless otherwise indicated. […] 293T cells were transfected with GAL4^uas×5-Tk-Luc reporter together with mammalian two-hybrid vectors expressing a fusion of Sin3B with GAL4 DNA binding domain (GAL4^DBD) and fusions of MAD and HDAC1 (columns 5-12 and 14-21, respectively) with VP16 activation domain (VP16^AD), as well as SID expression vectors, as indicated. […]
24 hours prior to transfection, 293T cells were plated at 50-60% confluence on 48-well plates. […] 48 hours post-transfection luciferase activity was measured using the Dual Luciferase assay system (Promega) on a Mithras LB940 plate reader (Berthold Technologies). […]

MDA-MB-231 cells = assay: Three-dimensional morphogenesis assay in Matrigel; assay type: cell-based, human; settings: 5 μM peptide; Matrigel 3D culture; colonies counted after 10 days of treatment
Description: FIG. 3: A. Morphogenesis in 3D cultures in Matrigel. MDA-MB-231 and MMTV-Myc cells expressing SID or the double mutant were cultured in 3D-Matrigel for 14 days. […] B. Reversion of the invasive phenotype of the MDA-MB-231 cells in Matrigel 3D cultures. Upper panel indicates change in numbers of invasive versus non invasive colonies (as indicated in crosshatched and non-crosshatched bars, respectively) in the presence of different concentrations (as indicated) of cell penetrating SID or SID^SCR (scrambled control) peptide. The colonies were counted after 10 days of treatment with a medium containing fresh peptide changed every 24 hours. […] The reduction in invasive phenotype was quantified by counting 5 low magnification fields per well done in triplicates (upper panel). The p value was calculated using the unpaired Student t test.
3D cultures of MDA-MB-231 and MMTV-Myc cells stably transfected with pEGFP-SID, pEGFP-SID2Mut or the parent vector pEGFP-N3 were prepared as described by Debnath et al. (Debnath et al2003). Briefly, […] of growth factor depleted Matrigel (BD Biosciences) was applied on 8-well multichamber slides (BD Biosciences) and incubated at 37° C. for 30 minutes. Once the Matrigel solidified 5×10^3 cells were seeded on top of the gels in assay medium containing 2% Matrigel and 20 ng/ml […]. Growth medium was changed daily for 14 days. Once colony formation was evident, the SID or the scramble control peptide was added to the MDA-MB-231 parental cells in the medium starting at day 3. The morphology of the colonies was determined by confocal microscopy. Induction of apoptosis was determined by staining colonies with activated caspase-3 antibody (BD Transduction Labs) and cell polarization by staining with anti-GM130 antibody (BD Transduction Labs). Cell nuclei were visualized by DAPI (Sigma) staining. […]

GAL4 DBD-Sin3B (fusion of Sin3B with GAL4 DNA binding domain), sequence (P04386 1-147): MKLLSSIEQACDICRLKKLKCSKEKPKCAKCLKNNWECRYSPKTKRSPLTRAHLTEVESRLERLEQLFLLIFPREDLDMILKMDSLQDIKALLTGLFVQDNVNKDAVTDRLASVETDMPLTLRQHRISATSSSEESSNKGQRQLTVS

Compound: CC1=C(/C=C/C(C)=C/C=C/C(C)=C/C(=O)O)C(C)(C)CCC1 [ATRA, all-trans-retinoic acid]
- growth inhibition (MTT) ([1]; 1 uM): significant growth inhibition

Compound: CC/C(=C(\c1ccccc1)c1ccc(OCCN(C)C)cc1)c1ccccc1 [tamoxifen]
- prevention of E2 growth stimulation (MTT) ([1]; 2.5 μM tamoxifen plus E2): prevention of E2 growth stimulation

Compound: AM580
- growth inhibition (MTT) ([1]; 100 nM): significant growth inhibition

Compound: FLAG-tagged SID (6.6 kDa), expressed from pSID (peptide)
- relative luciferase activity, mammalian two-hybrid with GAL4 DBD-Sin3B and VP16AD-MAD (fold increase) [2]: 2

Compound: TetR-SID fusion (28.4 kDa), expressed from pTHE
- relative luciferase activity, mammalian two-hybrid with GAL4 DBD-Sin3B and VP16AD-MAD (fold increase) [2]: 2

Compound: VP16AD-MAD (VP16 activation domain as in-frame fusion with full-length MAD) (from UniProt Q05195 1-221)
- relative luciferase activity, mammalian two-hybrid (GAL4UASx5-Tk-Luc reporter, 293T cells) (fold decrease) [2]: 5

Compound: YGRKKRRQGGGEQRARRIMERLLEYNMVADL [scrambled control, reference compound]
- increase in luciferase activity compared to GAL4 DBD-Sin3B and VP16AD-MAD co-expression (Sin3B and MAD): nor addition of scrambled control peptide led to an increase in luciferase activity
- decrease in number of colonies with invasive phenotype (MDA-MB-231 cells): did not exert this effect
